Source: patent publication US20130197043A1, “USE OF THE FETAL REPROGRAMMING OF A PPAR AGONIST” (SNU R&DB FOUNDATION, priority 2010, published 2013)

Key:
[1] = tested on: mice subjected to fetal reprogramming; test: Glucose tolerance test (GTT) of fetal-reprogrammed mice after high-fat feedstuff; assay type: in vivo; settings: GTT after 17 weeks high-fat feedstuff
Procedure: The present researchers conducted the glucose tolerance test (GTT) after the mice were fed with high-fat feedstuff for 17 weeks to induce diabetes. The experiment was conducted following the method proposed by Kelly, and challenged with over-night fasting in order to confirm the role thereof in the muscle. Glucose ([…]) was administered by using intraperitoneal injection, and then the blood glucose level change was measured for 2 hours. As a result, the fasting blood glucose level was lower, the maximum blood glucose concentration was lower, and the glucose clearance time was shorter in the mice of the administration group as compared with the mice of the control group (FIG. 19). At the same time, the insulin tolerance test was conducted (FIG. 20). To sum the above results up, it may be seen that animals subjected to fetal reprogramming by PPAR δ activation enhanced endurance due to an increase in slow muscle fibers and prevented and suppressed the occurrence of obesity and diabetes due to high-fat diet.

[2] = tested on: gene expression in gastrocnemius muscle; test: Gene expression analysis using microarray; assay type: in vivo, mice
From the text: As for an animal, the gastrocnemius muscle of 3-week old mice fetal-reprogrammed by PPAR δ agonist (CMDD1111) was resected, and then total RNA was extracted by using the Trizol reagent (Gibco). The isolated RNA was subjected to quantitative and purity verification processes, and then used for gene expression analysis using a Mouse 430 2.0 (Affimatrix) chip.

[3] = tested on: cytosolic calcium in differentiated muscle cells; test: Analysis of cytosolic calcium (Flou4, confocal microscope); assay type: cell-based, mouse; settings: 300 nM, 10 mM caffeine, calcium-free Kreb solution
Procedure: An experiment using a calcium-specific dye reagent, Flou4(Molecular probe), was conducted in order to confirm the effect on concentration of cytosolic calcium by the changes of RYR, SERCA, and PLN. The experiment method is as follows. The isolated muscle cells were grown on a culture plate with an attached glass slide through primary culture, and then differentiated into myotube while being treated with 300 nM of PPAR δ agonist (CMDD1111). Flou4 (final concentration: 5 μM) dye reagent was put into the differentiated muscle cells, which were then cultured for 30 minutes. The calcium-free Kreb solution was used as a culture medium to measure the change of cytosolic calcium, and treatment with 10 mM of caffeine was conducted to activate calcium channels. Intracellular calcium ion change was measured by using a confocal microscope. As the measurement result, the retention time of cytosolic calcium was increased by 43% (592±60 versus 847±77 sec) in the muscle cell to which PPAR δ agonist (CMDD1111) was added (FIG. 13). The reason was that expressions of RYR regulating calcium efflux and PLN suppressing calcium influx in the sarcoplasmic membrane were increased by PPAR δ. […]

[4] = tested on: primary cultured myotube; test: Primary cell culture and real-time PCR gene expression analysis; assay type: cell-based, mouse; settings: 300 nM, real-time PCR
Procedure: However, it has not been reported that the PPARs response element (PPRE) is present at promoters of these three genes. Therefore, the present inventors resected the muscle of the mouse with the removal of PPAR δ gene and conducted primary culture, in order to verify whether or not the increases in expressions of the above three genes are PPAR δ-dependent. After hind legs of a five-day-old fetus was resected, primary culture was conducted by the same method as developed by Rando (Rando et al, J. Cell. Biol., 1994, 125, 1275-1287). Myoblast, after being cultured, was transferred to a 6-well plate, and then differentiated into myotube while being treated with 300 nM of PPAR δ agonist (CMDD1111). The differentiated myotube was further treated with 300 nM of PPAR δ agonist (CMDD1111) for 2 days, and then total RNA was extracted by using a TRIzol reagent (Gibco). The extracted RNA was subjected to reverse transcription, to synthesize cDNA, which was then used as a template for real-time PCR analysis.

[5] = Pharmacokinetic experiment: passage of PPAR δ agonist through the placenta; assay type: in vivo, mice
Procedure: Pharmacokinetic experiment was conducted in order to confirm whether or not a PPAR δ agonist used in the present study, CMDD1111, passes through the placenta. CMDD 1111 was administered to 16-day pregnant mice at a concentration of 10 mg/kg, and then concentrations of the compound distributed in the bloods of mother animals and fetuses were analyzed for 24 hours. […] In the case of the fetuses, the blood concentration thereof tended to increase with the time, unlike the mother animals, and the maximum blood concentration thereof was 8.9 μM.

[6] = microarray, gastrocnemius muscle, 3-week old mice

With `Cc1cc(SC(Cc2ccccc2)c2sc(-c3ccc(C(F)(F)F)cc3)nc2C)ccc1OCC(=O)O` (stereo not drawn) [CMDD1111] the “fasting blood glucose level versus control” value [1] was “lower”, the “glucose clearance time versus control” value [1] was “shorter” and the “maximum blood glucose concentration versus control” value [1] was “lower”. The “expressions of genes commonly expressed in the heart muscle (RYR2, ATP2A2, PLN)” value ([2]; fetal-reprogrammed mouse group) was “remarkably increased”, the “expression of ATPase, Ca2+ transporting (SERCA)” value [2, 6] was 1.4 fold and the “expression of CamIIb” value [2, 6] was 1.4 fold. The “expression of CamIId” value [2, 6] was 1.8 fold, the “expression of HDAC4 (decrease)” value [2, 6] was −1.5 fold and the “expression of Mef2a” value [2, 6] was 1.4 fold. For the same compound, the “expression of PPARγ coactivator 1a” value [2, 6] was 1.7 folds, the “expression of Troponin I” value [2, 6] was 3.2 fold and the “expression of Troponin T2” value [2, 6] was 2.3 fold. The “expression of acyl CoA dehydrogenase (ACAD)” value [2, 6] was 1.7 fold, the “expression of acyl CoA synthetase (ACSL)” value [2, 6] was 1.5 fold and the “expression of carnitine palmitoyl transferase 1a (CPT-1a)” value [2, 6] was 1.4 fold. The “expression of cytochrome 8a (COX8A)” value [2, 6] was 1.7 fold, the “expression of myosin binding protein C3 (MYBPC3)” value [2, 6] was 2.8 fold and the “expression of myosin heavy chain 6 (Myh6)” value [2, 6] was 2.7 fold. The “expression of myosin light chain 7 (Myl7)” value [2, 6] was 2.9 fold, the “expression of pantothenate kinase 1 (PANK1)” value [2, 6] was 2.4 fold and the “expression of phospholamban (PLN)” value [2, 6] was 2.8 fold. For the same compound, the “expression of ryanodine receptor 2 (RYR2)” value [2, 6] was 2.8 fold, the “expression of ryanodine receptor 3 (RYR3)” value [2, 6] was 2.0 fold and the expression of ubiquinone [2, 6] was 2.0 fold. For the same compound, the “expression of uncoupling protein 2 (UCP2)” value [2, 6] was 1.5 fold, the “expression of uncoupling protein 3 (UCP3)” value [2, 6] was 2.3 fold and the “increase of retention time of cytosolic calcium” value [3] was 43%. For the same compound, the “retention time of cytosolic calcium” value [3] was 847 ± 77 s, the “expression of ATP2A2” value [4] was 4.3 fold and the “expression of CPT-1” value [4] was 1.5 fold. The “expression of PDK4” value [4] was 2.2 fold, the “expression of PLN” value [4] was 1.7 fold and the “expression of RYR” value [4] was 2.2 fold. The “expression of TNNI3” value [4] was 1.7 fold, the “passage through the placenta” value ([5]; 16-day pregnant mice, 10 mg/kg) was “passed through the placenta” and the half-life ([5]; female, mouse, blood, oral, mother animals, 16-day pregnant mice, 10 mg/kg, read-out: half-time (t1/2) (converted)) was 9 h. It also gave a Cmax ([5]; female, mouse, blood, oral, mother animals, 16-day pregnant mice, 10 mg/kg, read-out: maximum blood concentration (Cmax)) of 38 µM, a Tmax ([5]; female, mouse, blood, oral, mother animals, 16-day pregnant mice, 10 mg/kg, read-out: time for reaching the maximum blood concentration (Tmax)) of 1 h and a maximum blood concentration ([5]; fetuses, mother given 10 mg/kg, 24 hours) of 8.9 µM.
